One may read the EC50 as the concentration needed to bring the measured effect to its halfway point.

Data set [1] relates to ACHN. Kind of data set: MTT cytotoxicity, human tumor cell strain. The format is cell-based. To be noted: Kidney, 72 hours. An excerpt:
(§1) We use human tumor cell lines to conduct cytotoxicity analysis. Thirty-one (31) kinds of human tumor cell strains are cultivated in the normal culture medium containing various compounds of zhangnan-5, zhangnan-7 and zhangnan-8. The human tumor lines are bought from ATCC and NCI, and is cultivated with DMEM culture solution containing 10% FBS in 370C couveuse containing 5% CO2. The merged cells are digested by trypsinase, and are counted after washed by the culture solution. 3000˜6000 cells are added into each hole of the 96-hole culture plate, and are hatched for 16 hours or 24 hours. Then, compounds zhangnan-5, zhangnan-7 and zhangnan-8 with different concentrations are added into the holes. Upon further cultivated for another 72 hours, MTT tests are conducted to cells in group treated with drugs and the control group cells, to determine the survival condition of the cells.

Data set [2] relates to BT-549. Description: MTT cytotoxicity, human tumor cell strain. The format is cell-based. To be noted: BT-549, Mammary Gland, 72 hours.
Source text: as §1

The test system of data set [3] is HT29. Description: MTT cytotoxicity, human tumor cell strain. The format is cell-based. The note with it: HT-29, HT29, Colon, 72 hours.
Source text: as §1

Data set [4] has as its system Jurkat. Kind of data set: MTT cytotoxicity, human tumor cell strain. The note with it: Leukemia T Cell, 72 hours. The format is cell-based.
Source text: as §1

In data set [5] the test system is PC3. Description: MTT cytotoxicity, human tumor cell strain. The format is cell-based. To be noted: PC-3, PC3, Prostate, 72 hours.
Source text: as §1

Data set [6] concerns Raji. Kind of data set: MTT cytotoxicity, human tumor cell strain. To be noted: Lymphoma, 72 hours. The format is cell-based.
Source text: as §1

The test system of data set [7] is SKOV3. Description: MTT cytotoxicity, human tumor cell strain. The format is cell-based. The note with it: SK-OV-3, SKOV3, Ovary, 72 hours.
Source text: as §1

In data set [8] the test system is Widr. Description: MTT cytotoxicity, human tumor cell strain. The format is cell-based. To be noted: Colon, 72 hours.
Source text: as §1

In data set [9] the test system is C8166 (human T cell line). Kind of data set: Toxicity to C8166 cells (MTT, day 7). The format is cell-based. The note with it: Homo sapiens, read-out: IC50 (50% inhibition concentration) to C8166 cell. How it is done: (§2) (2) Toxicity of compounds zhangnan-5, zhangnan-7 and zhangnan-8 to C8166 and PBMC cells:
(§3) C8166 (human T cell line) and PBM (using lymphocyte isolation liquid to separate from normal human peripheral blood, and adhered mononuclear cell separated from PBMC) cells in exponential phase are taken. The cells are resuspended after centrifugal (1000 r•min-1, 10 min), and the concentrations are adjusted to 4×10^5/ml and 2×10^6/ml. The test samples are double diluted on the 96-hole cell culture plate. In total 6 gradients are set, each having 3 duplicate holes. In addition, positive control group and cell control group are set. Upon adding cell suspended liquid, the test samples are placed in incubator of 370C and 5% CO2 for incubation. On the seventh (7th) day, MTT method is used to determine toxicity of the samples to cells.
(§4) Inhibition ratio of cell growth (%)=(1−experimental hole OD value/control hole (OD value)×100%

The test system of data set [10] is normal person PBMC. Description: Toxicity to PBMC cells (MTT, day 7). The format is cell-based, human. To be noted: Homo sapiens, 168 h, day 7, MTT. How it is done: as §2, §3, §4
The subject of data set [11] is HIV-1IIIB. Kind of data set: Inhibition of HIV-1IIIB induced syncytium formation in C8166 cells. The format is cell-based. The note with it: for therapeutic index TI: HIV-1IIIB syncytium, C8166, TI=IC50/EC50; for EC50: Human immunodeficiency virus 1, HIV-1IIIB, C8166 cells, third day after infection. An excerpt:
(3) The inhibition effects of compounds zhangnan-5, zhangnan-7 and zhangnan-8 to virus HIV-1IIIB inducing C8166 cell to form syncytium: (see JIANG, Haiou; WANG, Xu; L I, Rurun; CHEN, Dagang; B I, Kunlong, Experimental Research on Recipe Sanhuangsan Capsule for Resisting AIDS virus in Vitro, [J]. Shandong Journal of Traditional Chinese medicine, 2005.8 (1):21-26).
The test sample is double diluted with culture medium on the 96-hole flat culture plate. There are 8 dilutions in total. Each hole 100 ul has 2 duplicate holes. In addition, there are positive control group, cell control group and virus control group. 80 ul C8166 cell of 4×10^5/ml is added into each hole, and then 20 ul virus HIV-1IIIB supernatant is added into each hole. The final volume of each hole is 200 ul. The sample is placed in incubator of 370C, 5% CO2 for cultivation. […] Under the inverted microscope, the number of syncytium formed by virus HIV-1IIIB inducing C8166 cell is counted. […] The following formula is used to calculate the inhibition ratio of the sample to syncytium.
Inhibition ratio formed by syncytium (%)=(1−experimental hole syncytium number/control hole syncytium number)×100%

The subject of data set [12] is human lung cancer cell NCI-H23. Description: Human tumor xenograft model in nude mice. To be noted: 30 mg/kg oral, 5 times a week for 3 weeks, end point 4 weeks, low = active. The format is in vivo, nude mice (nu/nu). The source says: (§5) (7) Drug administration of human tumor xenograft model and nude mice tumor transplantation model: (see Harrison S D Jr; Growth of human tumor cells in athymic mice; J Natl Cancer Inst. 1991 Oct. 16; 83 (20): 1509).
(§6) T cell deficiency nude mice (nu/nu) (male, 6-week old) are bought from Charles River Lab, and are raised in pathogen-free environment according to guidelines of animal raising and using committee of university. The number of […] LNCaP, NCI-H23, HCT-116, G-361 and U-251 cells are suspended in 0.2 ml HBSS or matrigel (50: 50, v/v), and are subcutaneously vaccinated to the side abdomen region of the mice. When the average diameters of the tumors are 7˜8 mm, the mice having tumor size of 100˜200 mm3 are chosen, and are given with treatment group of compound zhangnan-5 prepared with corn oil and are only given with control group of empty carrier (corn oil), respectively.
(§7) In the oral feeding test, the compound zhangnan-5 (30 mg/kg) is dissolved in corn oil. Each day the mice are tube fed with 200 μl drug liquid in single dose (prepared with corn oil, containing 0.75 mg compound zhangnan-5) for 5 times a week and for 3 weeks. The control group is given placebo (corn oil) according to same method. The mice are raised separately, and are allowed to self-help feeding.
(§8) The tumor is measured in two vertical directions every 3˜4 days.

Data set [13] deals with human malignant glioma cell U-251. Kind of data set: Human tumor xenograft model in nude mice. The note with it: U-251 xenograft, 30 mg/kg oral, 5 times a week for 3 weeks, end point 4 weeks; low = active. The format is in vivo, nude mice (nu/nu).
Source text: as §5, §6, §7, §8

For data set [14], the system named is human melanoma cell G-361. Kind of data set: Human tumor xenograft model in nude mice. The format is in vivo, nude mice (nu/nu). The note with it: G-361 xenograft, 30 mg/kg oral, 5 times a week for 3 weeks, end point 4 weeks; low = active.
Source text: as §5, §6, §7, §8
(In general: Xenograft models place foreign cells or tissue in a host animal.)

The test system of data set [15] is human prostate cancer cell LnCAP. Description: Human tumor xenograft model in nude mice. The format is in vivo, nude mice (nu/nu). To be noted: 30 mg/kg oral, 5 times a week for 3 weeks, end point 4 weeks, low = active.
Source text: as §5, §6, §7, §8

Data set [16] is described as follows: Side effects in the xenograft studies. To be noted: tumor-bearing nude mice, 30 mg/kg oral.
Source text: as §5, §6, §7

SMILES strings stand for the structures. Like-named read-outs stand apart in the source and are kept apart here.

With `C=C(C)C1CCC2(C(=O)O)CCC3(C)C(CCC4C5(C)CCC(=O)C(C)(CO)C5CCC43C)C12` (centres unmarked) [zhangnan-5], the EC50 in data set [1] worked out at 1.2 µM; in data set [2], 0.67 µM; in data set [3] it was 0.47 µM; in data set [4] it was 0.14 µM; in [5] it was 0.91 µM; in [6], 0.098 µM. Moreover, the concentration for a half-maximal effect (EC50) in data set [7] came out at 1.5 µM; in [8], 0.28 µM; in [11] it was 0.5 ± 0.07 µM. Further, the IC50 was 2.3 ± 0.47 µM in data set [9] (C8166, 168 h) and 2.4 ± 0.38 µM in [10]. Also, in [11], the “therapeutic index TI” value was 4.6. Also, the “TGI (T/C×100 of relative tumor volume)” value in data set [12] was 0%; in data set [14], 10.8%. Also, the “T/C of relative tumor volume (treated/control × 100)” value in [13] came to 12.5%. Further, the “T/C of relative tumor volume (%)” value in data set [15] worked out at 5%. For the same molecule, the “side effects, including changes in weight” value in data set [16] is “no obvious side effects have been found”.
For the molecule `CC(C)C1CCC2(C(=O)O)CCC3(C)C(CCC4C5(C)CCC(=O)C(C)(CO)C5CCC43C)C12` (centres unmarked) [zhangnan-7], the EC50 in data set [1] is 18.3 µM; in data set [2], 17.4 µM; in data set [3], 13.9 µM; in data set [4], 21.3 µM; in data set [5] it was 16.2 µM; in data set [6], 20.5 µM. In addition, the results for the EC50 in [7], in [8] and in [11] were 16.9 µM, 14.8 µM and 0.0019 ± 0.0002 µM, respectively. Further, the IC50 in [9] (168 h, C8166, day 7, MTT) amounted to 25 ± 5.2 µM; in [10], 25.8 ± 4.9 µM. The “therapeutic index TI” value in [11] is 13158.
For `CC(C)C1CCC2(C(=O)O)CCC3(C)C(CCC4C5(C)CCC(O)C(C)(CO)C5CCC43C)C12` (centres unmarked) [zhangnan-8, 23-hydroxyl-dihydrobetulinic acid], the EC50 was 8.9 µM in data set [1]; 7.4 µM in [2]; 8.9 µM in [3]; 7.1 µM in data set [4]; 8.9 µM in data set [5]; 6.9 µM in [6]. Besides, the concentration for a half-maximal effect (EC50) came out at 6.9 µM in data set [7], 8.1 µM in [8] and 1.1 ± 0.09 µM in [11]. Moreover, the IC50 in data set [9] (168 h, C8166, day 7, MTT) was 10.3 ± 2.9 µM; in data set [10], 11.6 ± 3.5 µM. Moreover, the “therapeutic index TI” value in data set [11] worked out at 9.4.

(Values after patent US20120302530A1, “23-HYDROXY-BETULINIC ACID DERIVATIVES, PREPARATION METHODS AND USES THEREOF” (priority 2009, published 2012).)
